Measured values from patent publication US12186354B2, “Lespedeza capitata extract for use in the field of hair care” (priority 2018, dated 2025).

Assays:
5α-reductase = 5α-reductase activity (DHT/testosterone ratio) in dermal papilla cells, C14 testosterone metabolism; type: cell-based, human; conditions: 10 μM, incubation 24 h+24 h
JAK1/2-STAT3 pathway = test: IL-6-induced STAT3 phosphorylation in follicular keratinocytes of the outer root sheath (ORS); type: cell-based, human; conditions: 5 μM, 1 h pre-treatment, IL-6 100 ng/ml 15 minutes

| SMILES | % inh (DHT/testosterone ratio, relative to the control condition) (5α-reductase) | Mean DHT/testosterone ratio (5α-reductase activity) (5α-reductase) | % of STAT phosphorylated, Mean (JAK1/2-STAT3 pathway) |
| --- | --- | --- | --- |
| CC(C)(C)NC(=O)[C@H]1CC[C@H]2[C@@H]3CC[C@H]4NC(=O)C=C[C@]4(C)[C@H]3CC[C@]12C [Finasteride, finasteride] | 94.2% | 0.02 |  |
| N#CC[C@H](C1CCCC1)n1cc(-c2ncnc3[nH]ccc23)cn1 [Ruxolitinib, ruxolitinib] |  |  | 102% |
